Columns and labels:
[1] = Administration of pentasaccharide sodium salt to minipigs by iontophoresis with periodic current reversal; plasma levels (Example 4); format: in vivo, minipig
Description: Administration to minipigs of the sodium salt of a pentasaccharide by iontophoresis with set current density with periodic reversal of the current direction.
The following iontophoretic administration tests were carried out on 4 minipigs by using the same current generator and the same type of electrodes as in Example 3, and by applying the following conditions:
The electrodes themselves consisted of 15 μm thick silver films chlorided by electrolytic oxidation in a ratio of 0.5 mAh of silver chloride per cm^2. The reservoirs, also measuring 20 cm^2, consisted of a sheet of blotting paper made of cellulose fibres supplemented with polypropylene fibrils, impregnated to a level of 50 mg/cm^2 with an aqueous solution containing 2% by weight of pentasaccharide and 0.2% by weight of NaCl. Each electrode, the anode and the cathode, contained in all 1 g of solution, i.e. 20 mg of pentasaccharide (1 mg/cm^2) for an active surface area of 20 cm^2. 40 mg of pentasaccharide were therefore engaged in all per animal.
The current generator delivered a constant intensity of 2.5 mA, i.e. 125 μA/cm^2 of direct current with regular reversals of the current direction every 30 minutes for a total time of 8 hours, corresponding to the passage of […] of direct current.
Each of the electrodes, having identical structure and composition, was therefore operated alternately as the cathode and then as the anode, the presence of sodium chloride in each of the reservoirs ensuring their permanent operation as a reversible electrode, thus avoiding any parasitic reaction of hydrolysis (with a change in the pH) or oxidation/reduction of the active principle.
In test 4a, involving 3 animals with an average weight of 11.8 kg, the electrodes were put in place but not connected to the current generator, whereas for all the tests 4b, which concerned 4 animals with an average weight of 12.3 kg, the current of 2.5 mA was applied for 8 hours with automated reversal of the current direction every half hour.
In tests 4a and 4b, a number of blood samples were taken periodically up to 30 hours after the start of each experiment, as in Example 3.
The plasma levels of the various samples are indicated in Table IV for the purpose of comparing tests 4a and 4b with one another and with the results of the tests carried out in Example 3, in particular tests 3c and 3d which correspond to intravenous and subcutaneous injections.

[2] = Transdermic passage of sodium pentasaccharide salt by iontophoresis at set intensity through nude rat skin (Example 2); format: in vitro ADME
Description: The procedure as described in Example 1 was carried out, but with the following modifications:
implementation of the iontophoresis by setting a constant intensity through each cell
use of a continuous current instead of a pulsed current
the absence of buffer in the donor and back-electrode compartments in test 2d, because these compartments are equipped with electrodes of the Ag/AgCl type, which avoid hydrolysis of water.
[…], over a period of 6 hours, using a generator making it possible to set a constant intensity irrespective of the voltages generated across the terminals of each cell.

factor Xa = assay: Antifactor Xa activity of the pentasaccharide sodium salt; format: biochemical
Description: The assay of the pentasaccharide in the receiver compartment was based on investigating its antifactor Xa activity. The assay was carried out either directly on the medium sampled from the receiver compartment or after dilution, using a ROTACHROM HEPARIN 8® assay kit, a complementary buffer for the assay instrument and bovine antithrombin III, these various elements being supplied by the company STAGO, using a HITACHI 717 assay instrument. The calibration curve was established using a "Golden Standard" pentasaccharide solution to which an antifactor Xa activity equal to 13 units per ml was assigned.

[3] = test 4b: iontophoresis 0.125 mA/cm^2, 8 hours, reversal every 30 minutes
[4] = test 2a: titanium, 0 mA/cm^2 (passive)

bioavailability ([1]; minipig, plasma, topical, test 4b, 40 mg engaged): ~21% | average quantity of pentasaccharide administered during the treatment ([1]; passive test 4a): zero | Initial plasma level ([1]; test 4a: passive, 0 mA/cm^2): 0 anti-Xa U/mL | Plasma level at 30 minutes ([1]; test 4a: passive, 0 mA/cm^2): 0 | Plasma level at 1 hour ([1]; test 4a: passive, 0 mA/cm^2): 0 | Plasma level at 2 hours ([1]; test 4a: passive, 0 mA/cm^2): 0 | Plasma level at 4 hours ([1]; test 4a: passive, 0 mA/cm^2): 0 | Plasma level at 6 hours ([1]; test 4a: passive, 0 mA/cm^2): 0 | Plasma level at 8 hours ([1]; test 4a: passive, 0 mA/cm^2): 0 | Plasma level at 10 hours ([1]; test 4a: passive, 0 mA/cm^2): 0 | Plasma level at 12 hours ([1]; test 4a: passive, 0 mA/cm^2): 0 | Plasma level at 16 hours ([1]; test 4a: passive, 0 mA/cm^2): 0 | Plasma level at 26 hours ([1]; test 4a: passive, 0 mA/cm^2): 0 | Plasma level at 30 hours ([1]; test 4a: passive, 0 mA/cm^2): 0 | quantity of pentasaccharide administered per mAh ([1]; test 4b): 372 μg/cm^2 | Initial plasma level [1, 3]: 0 anti-Xa U/mL | Plasma level at 30 minutes [1, 3]: 0.11 ± 0.05 | Plasma level at 1 hour [1, 3]: 0.16 ± 0.05 | Plasma level at 2 hours [1, 3]: 0.28 ± 0.1 | Plasma level at 4 hours [1, 3]: 0.64 ± 0.2 | Plasma level at 6 hours [1, 3]: 0.57 ± 0.18 | Plasma level at 8 hours [1, 3]: 0.59 ± 0.15 | Plasma level at 10 hours [1, 3]: 0.61 ± 0.16 | Plasma level at 12 hours [1, 3]: 0.58 ± 0.05 | Plasma level at 16 hours [1, 3]: 0.2 ± 0.05 | Plasma level at 26 hours [1, 3]: 0.14 ± 0.02 | Plasma level at 30 hours [1, 3]: 0.05 ± 0.02 | average quantity of pentasaccharide administered during the treatment ([1]; test 4b, from area under the curve): 8.45 ± 1.5 mg | Fraction of active principle used (%) ([2]; at 6 hours, test 2a: titanium, 0 mA/cm^2 (passive)): ~ zero | Fraction of active principle used (%) ([2]; at 6 hours, test 2b: graphite, 0.2 mA/cm^2): 0.09% | Fraction of active principle used (%) ([2]; at 6 hours, test 2c: titanium, 0.2 mA/cm^2): 0.49% | Fraction of active principle used (%) ([2]; at 6 hours, test 2d: Ag/AgCl, 0.2 mA/cm^2): 2.8% | Fraction of active principle used (%) ([2]; at 24 hours, test 2a: titanium, 0 mA/cm^2 (passive)): 0.09% | Fraction of active principle used (%) ([2]; at 24 hours, test 2b: graphite, 0.2 mA/cm^2): 0.9% | Fraction of active principle used (%) ([2]; at 24 hours, test 2c: titanium, 0.2 mA/cm^2): 0.75% | Fraction of active principle used (%) ([2]; at 24 hours, test 2d: Ag/AgCl, 0.2 mA/cm^2): 3.7% | Antifactor activity Xa/ml at 6 hours [2, 4]: 0.12 units per ml | Antifactor activity Xa/ml at 24 hours [2, 4]: 0.6 units per ml | total diffused quantity ([2]; test 2a: titanium, passive): 4.64 μg per cm^2 | Antifactor activity Xa/ml at 6 hours ([2]; test 2b: graphite, 0.2 mA/cm^2): 6 units per ml | total diffused quantity ([2]; test 2b: graphite, 0.2 mA/cm^2): 45 μg per cm^2 | Antifactor activity Xa/ml at 24 hours ([2]; test 2b: graphite, 0.2 mA/cm^2, 18 hours after current stopped): 5.8 units per ml | Antifactor activity Xa/ml at 6 hours ([2]; test 2c: titanium, 0.2 mA/cm^2): 3.2 units per ml | total diffused quantity ([2]; test 2c: titanium, 0.2 mA/cm^2): 38 μg per cm^2 | Antifactor activity Xa/ml at 24 hours ([2]; test 2c: titanium, 0.2 mA/cm^2, 18 hours after current stopped): 4.9 units per ml | total diffused quantity per mAh ([2]; test 2d: Ag/AgCl electrodes): 154 μg/cm^2 per mAh | total diffused quantity ([2]; test 2d: Ag/AgCl, 0.2 mA/cm^2): 185 μg per cm^2 | Antifactor activity Xa/ml at 6 hours ([2]; test 2d: Ag/AgCl, 0.2 mA/cm^2, no buffer): 18.1 units per ml | Antifactor activity Xa/ml at 24 hours ([2]; test 2d: Ag/AgCl, 0.2 mA/cm^2, 18 hours after current stopped): 24 units per ml
Structure (SMILES): O=C(O)C1OC(OC2C(COS(=O)(=O)O)OC(OC3C(C(=O)O)OC(OC4C(COS(=O)(=O)O)OC(O)C(NS(=O)(=O)O)C4O)C(OS(=O)(=O)O)C3O)C(NS(=O)(=O)O)C2OS(=O)(=O)O)C(O)C(O)C1OC1OC(COS(=O)(=O)O)C(O)C(O)C1NS(=O)(=O)O (centres unmarked) [pentasaccharide]
antifactor Xa activity (factor Xa): 0.65 "Golden Standard" units per microgram
